Patent US20260297081A1, “COMPOUNDS AND METHODS OF TREATING CANCERS” (Cullgen Inc., priority 2023, published 2026)

Tests used:
Assay type in all cases: cell-based
Calu-1 cells = test: Anti-proliferation (viability) of NSCLC Calu-1 cells, 3 days (Table 7, FIG. 2B); settings: Homo sapiens, 72 h; Calu-1 cells, 3 days, 10-point serial dilution; read-out: GI IC50 in Calu-1
How it was run: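 Cells treated with heterobifunctional compounds in 10-point serial dilution, then viability measured; Calu-1 NSCLC cells exposed for 3 days, ER+ T47D breast cancer cells for 6 days.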

CDK4 = CDK4 (Homo sapiens, UniProt P11802+Q16531); test: HiBiT detection of HiBiT-tagged CDK4 protein level in MCF7 cells, 16 hours (Table 8); design: expressed in transfected cells; host or cells: MCF7; settings: MCF7 cells stably expressing HiBiT tagged target proteins; for activity at 0.01 µM: 10 nM, read-out: % CDK4 Relative Level (10 nM); for activity at 0.1 µM: 100 nM, read-out: % CDK4 Relative Level (100 nM)
Experimental: HiBiT detection system quantitatively measures total amounts of HiBiT-tagged proteins using a luminescent based method. MCF7 cells stably expressing HiBiT tagged target proteins were treated with heterobifunctional compounds at indicated concentrations for 16 hours, then lysed with Nano-Glo HiBiT Lytic detection reagents.

MCF7 cells = test: Anti-proliferation (viability) of MCF7 cells (Table 7, FIG. 2B); settings: Homo sapiens, MCF7, MCF7 cells, 3-6 days, 10-point serial dilution; read-out: GI IC50 in MCF-7

CDK4, sequence (P11802 whole entry): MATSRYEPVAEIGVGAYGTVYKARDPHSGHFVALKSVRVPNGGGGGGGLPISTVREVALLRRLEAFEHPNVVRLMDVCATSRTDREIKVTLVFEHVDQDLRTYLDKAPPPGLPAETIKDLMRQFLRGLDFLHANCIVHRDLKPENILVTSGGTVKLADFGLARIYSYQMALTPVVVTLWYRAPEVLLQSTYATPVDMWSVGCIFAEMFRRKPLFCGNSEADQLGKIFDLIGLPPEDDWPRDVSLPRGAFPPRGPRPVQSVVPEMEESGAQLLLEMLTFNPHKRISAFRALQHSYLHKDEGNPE
CDK4, sequence (P24385 whole entry partner): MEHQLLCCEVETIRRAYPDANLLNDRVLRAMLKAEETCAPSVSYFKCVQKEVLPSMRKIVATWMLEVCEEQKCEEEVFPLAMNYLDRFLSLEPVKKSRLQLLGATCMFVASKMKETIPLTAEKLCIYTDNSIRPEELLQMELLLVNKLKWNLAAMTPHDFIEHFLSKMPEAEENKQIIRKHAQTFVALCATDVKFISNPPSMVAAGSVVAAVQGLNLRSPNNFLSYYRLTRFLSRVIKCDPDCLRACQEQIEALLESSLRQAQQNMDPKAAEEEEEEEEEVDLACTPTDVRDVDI
CDK4, sequence (Q16531 2-1140 limits assumed): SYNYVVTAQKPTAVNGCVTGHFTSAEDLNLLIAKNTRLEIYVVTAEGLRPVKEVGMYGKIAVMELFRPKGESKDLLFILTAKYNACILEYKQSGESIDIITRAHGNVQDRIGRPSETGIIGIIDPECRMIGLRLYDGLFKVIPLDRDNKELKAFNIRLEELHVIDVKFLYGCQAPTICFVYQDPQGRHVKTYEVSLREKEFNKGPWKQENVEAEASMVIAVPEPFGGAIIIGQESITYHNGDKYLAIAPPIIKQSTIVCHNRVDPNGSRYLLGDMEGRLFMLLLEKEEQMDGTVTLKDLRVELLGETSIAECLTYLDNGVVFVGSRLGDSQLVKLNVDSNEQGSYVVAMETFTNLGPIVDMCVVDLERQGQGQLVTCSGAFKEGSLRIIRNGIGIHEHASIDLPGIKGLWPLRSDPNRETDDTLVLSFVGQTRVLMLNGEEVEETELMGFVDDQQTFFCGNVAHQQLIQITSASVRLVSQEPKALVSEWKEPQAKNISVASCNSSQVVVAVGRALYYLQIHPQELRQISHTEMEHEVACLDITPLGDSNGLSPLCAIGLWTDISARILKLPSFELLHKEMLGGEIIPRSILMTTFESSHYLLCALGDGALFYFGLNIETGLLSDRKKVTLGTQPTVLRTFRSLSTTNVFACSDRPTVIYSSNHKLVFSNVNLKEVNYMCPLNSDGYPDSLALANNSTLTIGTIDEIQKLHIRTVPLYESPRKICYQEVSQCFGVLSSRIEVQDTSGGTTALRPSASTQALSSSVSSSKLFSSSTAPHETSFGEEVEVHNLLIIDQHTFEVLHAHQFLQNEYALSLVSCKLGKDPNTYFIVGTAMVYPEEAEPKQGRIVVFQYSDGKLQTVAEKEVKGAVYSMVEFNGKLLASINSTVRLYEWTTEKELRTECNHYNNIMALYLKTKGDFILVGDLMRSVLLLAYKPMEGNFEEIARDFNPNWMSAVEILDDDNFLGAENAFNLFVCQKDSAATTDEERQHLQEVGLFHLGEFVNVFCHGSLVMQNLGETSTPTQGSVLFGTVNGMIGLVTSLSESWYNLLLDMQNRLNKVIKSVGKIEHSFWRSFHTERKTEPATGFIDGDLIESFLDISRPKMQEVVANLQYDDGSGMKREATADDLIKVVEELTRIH

SMILES	IC50 (Calu-1 cells)	activity at 0.01 µM (CDK4)	activity at 0.1 µM (CDK4)	IC50 (MCF7 cells)
CC(=O)c1c(C)c2cnc(Nc3ccc(N4CCC(N(C)CC(=O)NC56CC(Nc7nc(NC(C)C)ccc7C(=O)Nc7ccc(N(C)C)nn7)(C5)C6)CC4)cn3)nc2n(C2CCCC2)c1=O [CPD-505, 2-((3-(2-((1-(6-((6-acetyl-8-cyclopentyl-5-methyl-7-oxo-7,8-dihydropyrido[2,3-d]pyrimidin-2-yl)amino)pyridin-3-yl)piperidin-4-yl)(methyl)amino)acetamido)bicyclo[1.1.1]pentan-1-yl)amino)-N-(6-(dimethylamino)pyridazin-3-yl)-6-(isopropylamino)nicotinamide]	≤ 10 nM	> 85%	> 85%	< 50 nM
CC(=O)c1c(C)c2cnc(Nc3ccc(N4CCN(CCNC(=O)C56CC(Nc7nc(NC(C)C)ccc7C(=O)Nc7ccc(N(C)C)nn7)(C5)C6)CC4)cn3)nc2n(C2CCCC2)c1=O [CPD-506, 2-((3-((2-(4-(6-((6-acetyl-8-cyclopentyl-5-methyl-7-oxo-7,8-dihydropyrido[2,3-d]pyrimidin-2-yl)amino)pyridin-3-yl)piperazin-1-yl)ethyl)carbamoyl)bicyclo[1.1.1]pentan-1-yl)amino)-N-(6-(dimethylamino)pyridazin-3-yl)-6-(isopropylamino)nicotinamide]	≤ 10 nM	> 85%	> 85%	< 50 nM
CC(=O)c1c(C)c2cnc(Nc3ccc(N4CCN(C5CCN(C(=O)[C@H]6CC[C@H](Nc7nc(NC(C)C)ccc7C(=O)Nc7cc8n(n7)CCC8)CC6)C5)CC4)cn3)nc2n(C2CCCC2)c1=O (stereo partly drawn) [CPD-520, 2-((trans-4-(3-(4-(6-((6-acetyl-8-cyclopentyl-5-methyl-7-oxo-7,8-dihydropyrido[2,3-d]pyrimidin-2-yl)amino)pyridin-3-yl)piperazin-1-yl)pyrrolidine-1-carbonyl)cyclohexyl)amino)-N-(5,6-dihydro-4H-pyrrolo[1,2-b]pyrazol-2-yl)-6-(isopropylamino)nicotinamide]	≤ 10 nM	> 85%	> 85%	< 50 nM
CC(=O)c1c(C)c2cnc(Nc3ccc(N4CCN(CC(=O)N(C)CC56CC(Nc7nc(NC(C)C)ccc7C(=O)Nc7ccc(N(C)C)nn7)(C5)C6)CC4)cn3)nc2n(C2CCCC2)c1=O [CPD-525, 2-((3-((2-(4-(6-((6-acetyl-8-cyclopentyl-5-methyl-7-oxo-7,8-dihydropyrido[2,3-d]pyrimidin-2-yl)amino)pyridin-3-yl)piperazin-1-yl)-N-methylacetamido)methyl)bicyclo[1.1.1]pentan-1-yl)amino)-N-(6-(dimethylamino)pyridazin-3-yl)-6-(isopropylamino)nicotinamide]	≤ 10 nM	> 85%	> 85%	< 50 nM
COC1(C(=O)N2CCC(N3CCN(c4ccc(Nc5ncc6c(C)c(C(C)=O)c(=O)n(C7CCCC7)c6n5)nc4)CC3)C2)CCC(Nc2nc(NC(C)C)ccc2C(=O)Nc2ccc(N(C)C)nn2)CC1 (stereo not shown) [CPD-536, 2-((4-(3-(4-(6-((6-acetyl-8-cyclopentyl-5-methyl-7-oxo-7,8-dihydropyrido[2,3-d]pyrimidin-2-yl)amino)pyridin-3-yl)piperazin-1-yl)pyrrolidine-1-carbonyl)-4-methoxycyclohexyl)amino)-N-(6-(dimethylamino)pyridazin-3-yl)-6-(isopropylamino)nicotinamide]	≤ 10 nM	> 85%	55 to 85%	< 50 nM
CC(=O)c1c(C)c2cnc(Nc3ccc(N4CCN(C5CCN(C(=O)CC67CC(Nc8nc(NC(C)C)ccc8C(=O)Nc8ccc(N(C)C)nn8)(C6)C7)C5)CC4)cn3)nc2n(C2CCCC2)c1=O (stereo not shown) [CPD-537, 2-((3-(2-(3-(4-(6-((6-acetyl-8-cyclopentyl-5-methyl-7-oxo-7,8-dihydropyrido[2,3-d]pyrimidin-2-yl)amino)pyridin-3-yl)piperazin-1-yl)pyrrolidin-1-yl)-2-oxoethyl)bicyclo[1.1.1]pentan-1-yl)amino)-N-(6-(dimethylamino)pyridazin-3-yl)-6-(isopropylamino)nicotinamide]	≤ 10 nM	> 85%	> 85%	< 50 nM
CC(=O)c1c(C)c2cnc(Nc3ccc(CN4CCN(C(C)C(=O)N5CCC6(CCC(Nc7nc(NC(C)C)ccc7C(=O)Nc7ccc(N(C)C)nn7)C6)C5)CC4)cn3)nc2n(C2CCCC2)c1=O (stereo not shown) [CPD-550, 2-((2-(2-(4-((6-((6-acetyl-8-cyclopentyl-5-methyl-7-oxo-7,8-dihydropyrido[2,3-d]pyrimidin-2-yl)amino)pyridin-3-yl)methyl)piperazin-1-yl)propanoyl)-2-azaspiro[4.4]nonan-7-yl)amino)-N-(6-(dimethylamino)pyridazin-3-yl)-6-(isopropylamino)nicotinamide]	≤ 10 nM	> 85%	> 85%	< 50 nM
CC(=O)c1c(C)c2cnc(Nc3ccc(C(C)N4CCN(CC(=O)N5CCC6(CCC(Nc7nc(NC(C)C)ccc7C(=O)Nc7ccc(N(C)C)nn7)C6)C5)CC4)cn3)nc2n(C2CCCC2)c1=O (stereo not shown) [CPD-551, 2-((2-(2-(4-(1-(6-((6-acetyl-8-cyclopentyl-5-methyl-7-oxo-7,8-dihydropyrido[2,3-d]pyrimidin-2-yl)amino)pyridin-3-yl)ethyl)piperazin-1-yl)acetyl)-2-azaspiro[4.4]nonan-7-yl)amino)-N-(6-(dimethylamino)pyridazin-3-yl)-6-(isopropylamino)nicotinamide]	≤ 10 nM	> 85%	55 to 85%	< 50 nM

Other lines, results leading:

IC50 (Calu-1 cells)	activity at 0.01 µM (CDK4)	activity at 0.1 µM (CDK4)	IC50 (MCF7 cells)	SMILES
≤ 10 nM	> 85%	> 85%	< 50 nM	CC(=O)c1c(C)c2cnc(Nc3ccc(CN4CCN(CC(=O)N5CC6(CCC(Nc7nc(NC(C)C)ccc7C(=O)Nc7ccc(N(C)C)nn7)C6)C5)CC4)cn3)nc2n(C2CCCC2)c1=O (stereo not shown) [CPD-515, 2-((2-(2-(4-((6-((6-acetyl-8-cyclopentyl-5-methyl-7-oxo-7,8-dihydropyrido[2,3-d]pyrimidin-2-yl)amino)pyridin-3-yl)methyl)piperazin-1-yl)acetyl)-2-azaspiro[3.4]octan-6-yl)amino)-N-(6-(dimethylamino)pyridazin-3-yl)-6-(isopropylamino)nicotinamide]
≤ 10 nM	> 85%	> 85%	< 50 nM	CC(=O)c1c(C)c2cnc(Nc3ccc(N4CCC5(CCN(CC(=O)N6CC7(CC(Nc8nc(NC(C)C)ccc8C(=O)Nc8cc9n(n8)CCC9)C7)C6)C5)C4)cn3)nc2n(C2CCCC2)c1=O (stereo not shown) [CPD-529, 2-((2-(2-(7-(6-((6-acetyl-8-cyclopentyl-5-methyl-7-oxo-7,8-dihydropyrido[2,3-d]pyrimidin-2-yl)amino)pyridin-3-yl)-2,7-diazaspiro[4.4]nonan-2-yl)acetyl)-2-azaspiro[3.3]heptan-6-yl)amino)-N-(5,6-dihydro-4H-pyrrolo[1,2-b]pyrazol-2-yl)-6-(isopropylamino)nicotinamide]
≤ 10 nM	55 to 85%	55 to 85%	< 50 nM	[2H]C([2H])([2H])Nc1ccc(C(=O)Nc2cccc(OC)n2)c(NC2CC3(C2)CN(C(=O)CC(N2CCN(c4ccc(Nc5ncc6c(C)c(C(C)=O)c(=O)n(C7CCCC7)c6n5)nc4)CC2)C(F)(F)F)C3)n1 (stereo not shown) [CPD-531, 2-((2-(3-(4-(6-((6-acetyl-8-cyclopentyl-5-methyl-7-oxo-7,8-dihydropyrido[2,3-d]pyrimidin-2-yl)amino)pyridin-3-yl)piperazin-1-yl)-4,4,4-trifluorobutanoyl)-2-azaspiro[3.3]heptan-6-yl)amino)-N-(6-methoxypyridin-2-yl)-6-((methyl-d3)amino)nicotinamide]
≤ 10 nM	55 to 85%	55 to 85%	< 50 nM	COc1cccc(NC(=O)c2ccc(NC(C)C)nc2NC2CC3(C2)CN(C(=O)CN2CCC4(CCN(c5ccc(Nc6ncc7c(C)c(C(C)=O)c(=O)n(C8CCCC8)c7n6)nc5)C4)C2)C3)n1 (stereo not shown) [CPD-532, 2-((2-(2-(7-(6-((6-acetyl-8-cyclopentyl-5-methyl-7-oxo-7,8-dihydropyrido[2,3-d]pyrimidin-2-yl)amino)pyridin-3-yl)-2,7-diazaspiro[4.4]nonan-2-yl)acetyl)-2-azaspiro[3.3]heptan-6-yl)amino)-6-(isopropylamino)-N-(6-methoxypyridin-2-yl)nicotinamide]
≤ 10 nM	> 85%	55 to 85%	< 50 nM	CC(=O)c1c(C)c2cnc(Nc3ccc(N4CCC5(CCN(CC(=O)N6CC7(CC(Nc8nc(NC(C)C)ccc8C(=O)Nc8cn9c(n8)CCC9)C7)C6)C5)C4)cn3)nc2n(C2CCCC2)c1=O (stereo not shown) [CPD-565, 2-((2-(2-(7-(6-((6-acetyl-8-cyclopentyl-5-methyl-7-oxo-7,8-dihydropyrido[2,3-d]pyrimidin-2-yl)amino)pyridin-3-yl)-2,7-diazaspiro[4.4]nonan-2-yl)acetyl)-2-azaspiro[3.3]heptan-6-yl)amino)-N-(6,7-dihydro-5H-pyrrolo[1,2-a]imidazol-2-yl)-6-(isopropylamino)nicotinamide]
